Measured values taken from patent US9285322B2, “pH modulation methods and systems for detecting binding events” (The Texas A&M University System, priority 2010, dated 2016).

Tests used:
[1] = biological target: biotinylated bovine serum albumin (bovine) (UniProt P02769); experiment: homogeneous pH modulation fluorescence assay in two parallel microfluidic channels; 3 uM labeled avidin, 500 nM biotinylated BSA, 150 mM NaCl, 10 mM PBS, pH 7.0
different kinases = conditions: cited from earlier work
avidin [2] = biological target: T1, avidin (Gallus gallus, UniProt P02701); experiment: homogeneous biotin detection with ortho-TEXAS RED-conjugated avidin in microfluidic channels; type: binding; conditions: 200 μM biotin, 10 μM ortho-TEXAS RED-conjugated avidin, PBS, pH 8.2
avidin [3] = biological target: T1, avidin; experiment: protein-protein interaction assay: labeled avidin with biotinylated BSA in two parallel microfluidic channels; type: binding
calmodulin [4] = biological target: T2, calmodulin (Homo sapiens, UniProt P0DP23); conditions: 1 M CaCl2, 66 μM dye-conjugated calmodulin, 10 mM Tris, 100 mM NaCl, pH 7.4
calmodulin [5] = biological target: T2, calmodulin; conditions: read-out: equilibrium dissociation constant; cited from earlier work

T1 sequence (P02701 25-152): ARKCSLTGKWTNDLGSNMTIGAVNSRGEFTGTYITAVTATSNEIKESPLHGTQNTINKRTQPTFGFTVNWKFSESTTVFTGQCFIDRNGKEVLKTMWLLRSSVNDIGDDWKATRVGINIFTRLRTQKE
Sequence of biotinylated bovine serum albumin (bovine) (P02769 25-607 limits assumed): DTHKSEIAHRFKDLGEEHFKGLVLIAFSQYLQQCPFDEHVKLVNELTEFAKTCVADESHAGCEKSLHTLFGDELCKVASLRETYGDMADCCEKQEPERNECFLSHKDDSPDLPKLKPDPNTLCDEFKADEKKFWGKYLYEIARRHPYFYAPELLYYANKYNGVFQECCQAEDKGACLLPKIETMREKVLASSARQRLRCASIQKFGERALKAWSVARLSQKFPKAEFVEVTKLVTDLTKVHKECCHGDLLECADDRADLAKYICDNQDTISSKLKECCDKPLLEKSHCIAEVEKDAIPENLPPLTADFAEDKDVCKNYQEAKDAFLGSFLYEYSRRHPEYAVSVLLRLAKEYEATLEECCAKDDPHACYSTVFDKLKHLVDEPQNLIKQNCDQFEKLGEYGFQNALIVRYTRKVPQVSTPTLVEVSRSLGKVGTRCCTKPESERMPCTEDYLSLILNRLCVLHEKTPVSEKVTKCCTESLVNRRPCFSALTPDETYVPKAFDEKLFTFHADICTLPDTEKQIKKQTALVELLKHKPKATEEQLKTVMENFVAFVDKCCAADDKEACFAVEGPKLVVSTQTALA

Compound: ortho-TEXAS RED succinimidyl ester labeled avidin (from UniProt P02701 25-152)
- fluorescence intensity with biotinylated BSA relative to the channel without it [1]: 8 fold

Compound: Nc1ncnc2c1ncn2[C@@H]1O[C@H](COP(=O)(O)OP(=O)(O)OP(=O)(O)O)[C@@H](O)[C@H]1O [ATP, adenosine triphosphate]
- affinities of different kinases for ATP (different kinases): tens of nanomolar to hundreds of micromolar

Compound: O=C(O)CCCC[C@@H]1SC[C@@H]2NC(=O)N[C@@H]21 [biotin]
- fluorescence intensity increase (factor) when biotin was present (avidin [2]): six

Compound: biotinylated BSA: biotinylated bovine serum albumin
- signal in channel with biotinylated BSA relative to channel without (times brighter) (avidin [3]; 500 nM biotinylated BSA, 3 μM ortho-TEXAS RED succinimidyl ester labeled avidin, 150 mM NaCl, 10 mM PBS, pH 7.0): approximately eight

Compound: [Ca+2].[Cl-].[Cl-] [Ca^2+, calcium chloride]
- attenuation in fluorescence intensity (factor) when Ca2+ is present (calmodulin [4]): two
- Kd (calmodulin [5]): 14 µM

Compound: para-sulforhodamine 101 [para-TEXAS RED®]
- fluorescence difference between channels with and without biotinylated BSA, control dye (avidin [3]; control with para-TEXAS RED under identical conditions (500 nM biotinylated BSA, pH 7.0)): no difference between the two channels
